These are literature values, as cited in patent US8022179B2 (priority 2005, dated 2011).

In the series the test system is wrinkles. To be noted: in vivo; cited from earlier work.

For the sequence ARGIRELINE, the wrinkle reduction result is given as “affords wrinkle reduction in certain cases”.
